Where two headings read alike, the source gives them in different places.
What was measured:
[1] = system: immobility in tail suspension test; assay: Tail suspension test (TST); type: in vivo, mice; details: intracerebral administration
Method: (§1) In the RFS study, mice were subjected to 4 daily 15 min swims as described above and were injected i.p. with either vehicle or dp6FNE (3 mg/kg) 15 min prior to the 5th swim. In the TST study, animals were injected similarly before a 6 min test. […] The animals were anesthetized and perfused for immuno-histochemistry 70 min after the start of the swim or tail suspension. Brains were processed as described previously for double-label immunofluorescent Fos/tyrosine hydroxylase staining of all sections through the LC and for single-label Fos staining through the full PVH (Stone et al., Brain Res (2009) 1291: 21-31).
To determine if dp6FNE was active in a more traditional test of antidepressant activity, it was given as above 15 min prior to a tail suspension test.
(§2) The first test involves an acute stress-induced model of depression (Steru, et al., Psychopharmacology 1985; 85: 367-370) whereas the second, a more prolonged, chronic depression that is more akin to chronic human depression (Stone, et al., Pharmacol Biochem Behav 2008; 91: 190-195).

[2] = system: locomotor behavior in an open field; assay: Open field locomotor behavior after ivt. 6FNE or i.p. dp6FNE versus amphetamine; type: in vivo, mice
Method: 6FNE and dp6FNe were tested for their effects on motor activity by measuring locomotor behavior in an open field after either ivt. (6FNE) or i.p. injection (dp6fNE) in mice. These mice were compared to animals that were either non handled or received either a vehicle ivt injection or an i.p. injection of the stimulant, amphetamine (5 mg/kg). The results are shown in FIG. 6 and in (Stone, Lin Y, Sarfraz Y, and Quartermain D, 2011). […] Furthermore, the increase in activity after 6FNE was minor in comparison with the bona fide stimulant, amphetamine which produced a 10 fold increase. The small increase over the vehicle group therefore appears to be the result of a reduction of the stress caused by the handling and restraint for the ivt. injection which is in agreement with the reduced activation of brain stress circuits discussed above. This interpretation was supported by an examination of the time in the center or risky area of the field spent by the various groups. […] A slight reduction in motor behavior at the low doses (0.1-0.3 mg/kg) were, however, observed.

[3] = system: repeated open-space swim model; assay: Repeated open-space (forced) swim test; type: in vivo, mice; details: for antidepressant activity in the repeated open-space forced swim test: intracerebral administration
Excerpt: as §2

[4] = prazosin: at 0.2 mg/kg in mice; cited from earlier work
[5] = system: model of chronic depression in mice (repeated forced swim); details: for acute antidepressant (anti-immobility) effect in the RFS: single acute i.p. administration minutes before the swim, low doses, prazosin 0.2 mg/kg present
Excerpt: We administered the pro-drugs shortly before one or more tests of antidepressant activity including reversal of immobility during tail suspension and forced swimming and attenuation of anhedonia produced by endotoxin administration. […] (Stone et al., Eur. J. Pharmacol. (2001) 420: 97-102) Because dp6FNE like all other antidepressants has an initial anorexic effect and acutely reduces the consumption of sweet solutions, in the test for anhedonia it was necessary to employ a non-nutritive hedonic behavior, FUST (sniffing of estrous female urine). […] (Stone et al., Neuropsychopharmacology (2011) 14: 319-331); Sun et al., J. Neurosci. Methods (2003) 126:35-40; Sun et al., Behavioral Pharmacology (2008) 19: 334-338).
Mice were swum for 15 min/d on 4 d and tested for the response to acute i.p dp6FNE (1 or 3 mg/kg) alone or in combination with 8-OHDPAT (0.05 mg/kg) and corticosterone (3 mg/kg) on the 5th and final swim (15 min after drug administration). […] Comparison groups receiving currently available antidepressants were treated acutely i.p. or chronically (14 d osmotic pumps) with either desmethylimipramine (DMI) (10 mg/kg), fluoxetine (5 mg/kg), escitalopram (5 mg/kg), bupropion (10 mg/kg) or ketamine (10 mg/kg).
Although corticosteroids are well known to produce depression (Gourley et al., Biol Psychiatry (2008) 64: 884-890), this occurs at high doses only. […] Mice were swum for 3 d and given either vehicle (0.8% ethanol) or corticosterone (12.5 μg/ml) in their drinking water.
As described in Example 4a, the cocktail was tested in a mouse model of chronic depression (RFS).

[6] = system: home cage exploration in handling-stressed mice; assay: Home cage activity after handling and injection stress; type: in vivo
Method: FIG. 15 depicts the effect of acute i.p. dp6FNE (1 mg/kg) or cirazoline (0.1 mg/kg), (N=1), on home cage activity in terms of rearing and ambulation, Veh (N=12).
6FNE has a more rapid and/or greater antidepressant effect than either of these agonists because 6FNE is the only known selective α-agonist that has full efficacy at all brain α-adrenoceptors and 6FNE works within minutes (Stone, et al. 2011) whereas cirazoline was given to mice over several months prior to testing in one model (forced swim test) in the above experiment by Doze et al, 2009. […] (Stone, E A, Lin Y, Quartermain, D, Unpublished results)
It is known that peripheral administration of α1-agonists without phentolamine impairs exploratory behavior in the open field (Yang, et al., J Pharmacol exp Ther 1990; 255: 1064-1070).

PVH Fos expression = assay: Fos expression in the PVH, RFS model, corticosterone in the drinking water; type: in vivo, mice; details: versus veh
Excerpt: (§3) GR agonists such as corticosterone and dexamethasone are well known to produce selective inhibition of the neural activity of parvocellular PVH neurons at low doses (Keller-Wood et al., Endo Rev (1982) 5: 1-24; Dallman et al., Ann N Y Acad Sci 91987) 512: 402-414). This effect was shown in a previous experiment on the effects of corticosterone in the drinking water on Fos expression in the PVH or piriform cortex of mice subjected to the RFS model (Stone et al., eur J Pharmacol (2007) In Press). The animals were swum a total of 3 times and on the night prior to the 3rd swim given corticosterone at 12.5, 25 or 50 μg/ml in the drinking water. These concentrations produced nighttime intakes of 4.6, 10.7 and 14.2 mg/kg. The mice were given the 3rd and final swim the following morning, 0800-1000 h, and were anesthetized and perfused 70 min after the start of the swim for immunohistochemical assay of Fos in the PVH and in the piriform cortex, a control region that supports positively motivated behavior (Carr et al., Neuropsychopharmacology (2010) 35: 752-763; Stone et al., Neurosci Biobehav Revs (2008a) 32: 508-524).

[7] = system: Fos expression in the piriform cortex; assay: Fos expression in the piriform cortex, RFS model, corticosterone in the drinking water; type: in vivo, mice; details: versus veh
Excerpt: as §3

[8] = system: open field behavior (locomotion and center square occupancy); assay: Open field motor activity and anxiety after capture and injection; type: in vivo, mice; details: corticosterone 12.5 μg/ml in drinking water (4.6 mg/kg)
Method: To determine if the agonists had motor stimulating or sedative actions, mice were allowed to explore an open field undisturbed for 60 min and were then captured and injected i.p. with either vehicle or the full “cocktail” of the 3 […] (dp6FNE 1 mg/kg; 8-OHDPAT, 0.05 mg/kg; corticosterone, 3 mg/kg, praz, 0.2 mg/kg) before being replaced in the field for a final 15 min. The vehicle injection (praz present) reduced subsequent locomotion and time spent in the center of the field by −76.8±11.0% and −78.5±12.4%, respectively, from preceding levels, indicating an anxiogenic effect of the injection procedure. The injection of the “cocktail”, however, rescued both locomotion and center time to −12.9±1.9% and −25.3±6.9%, respectively, indicating a strong anti-anxiety effect with no motor stimulation or sedation (FIG. 9).
In addition to its antidepressant property, the cocktail is also effective in producing a significant antianxiety effect without sedation in these animals. The applicants have tested for this effect using an open field in which animals are placed and permitted to explore freely after which they are captured, restrained briefly for an ip. injection of saline and returned to the field for a final 15 min. […]

[9] = oral; cited from earlier work
Fos expression in the LC = Fos expression in the LC during the RFS model; type: in vivo, mice; details: prazosin 0.2 mg/kg; vehicle animals compared with previous results without prazosin
Method: as §1, with “21-31). […] In the tail suspended mice the analogous reductions were 53.5±7.2% (LC) and 36.7±3.1 (PVH). […] These findings thus indicate that a dose of […] dp6FNE that has preferential inhibitory effects on the LC during depression exists.” for “21-31).”

[10] = corticosterone 25 μg/ml in drinking water, nighttime intake 10.7 mg/kg
[11] = corticosterone 50 μg/ml in drinking water, nighttime intake 14.2 mg/kg
[12] = corticosterone 12.5 μg/ml in drinking water, nighttime intake 4.6 mg/kg, mice swum for 3 d, versus vehicle

NCC(O)c1cc(O)c(O)cc1F (stereo not drawn) [6FNE, 6-fluoronorepinephrine]
antidepressant activity in the tail suspension test [1]: equally effective
time in the center of the field ([2]; 6FNE ivt. or dp6FNE i.p.): restored this behavior back to the level of the non-handled controls
effect on motor activity in the open field ([2]; mouse, in vivo, ip): no change in activity compared to the non-handled animals
antidepressant activity in the repeated open-space forced swim test [3]: effective
passage of the blood brain barrier [4]: does not pass the blood brain barrier

CNCCCN1c2ccccc2CCc2ccccc21 [DMI, desmethylimipramine]
acute effect in the repeated open-space swim test ([3]; acute i.p., dp6FNE at 1, 3 and 10 mg/kg given along with phentolamine 5 mg/kg i.p.): complete lack of effect

CC(N)Cc1ccccc1 (stereo not drawn) [amphetamine]
increase in activity in the open field ([2]; amphetamine 5 mg/kg i.p.): 10 fold

CCC1(c2cnc[nH]2)Cc2ccccc2C1 [atipamezole]
effect of receptor blockade on the antidepressant actions of dp6FNE in the RFS ([5]; mouse, in vivo): significantly reversed the antidepressant actions of pro-drug in the RFS

c1ccc(C2CC2)c(OCC2=NCCN2)c1 [cirazoline]
effect by itself on movement and motor behavior in the home cage ([6]; cirazoline i.p., unpublished results): pronounced inhibition of movement and motor behavior
behavioral inhibition in the home cage following handling and injection stress ([6]; i.p., dp6FNE (1 mg/kg) in the presence of phentolamine, cirazoline (0.1 mg/kg)): not effective in reducing behavioral inhibition

C[C@]12C[C@H](O)[C@H]3[C@@H](CCC4=CC(=O)CC[C@@]43C)[C@@H]1CC[C@@H]2C(=O)CO [corticosterone]
reduction of PVH Fos expression (PVH Fos expression; corticosterone 12.5 μg/ml in drinking water, nighttime intake 4.6 mg/kg, 70 min after start of 3rd swim): −51.7±17%
reduction of PVH Fos expression (PVH Fos expression; [10]): −66.8±8.5%
reduction of PVH Fos expression (PVH Fos expression; [11]): −63.7±11.0%
increase of Fos expression in the piriform cortex ([7]; corticosterone 12.5 μg/ml in drinking water, nighttime intake 4.6 mg/kg): +203.3±78.6%
increase of Fos expression in the piriform cortex [7, 10]: +175.3±53.9%
increase of Fos expression in the piriform cortex [7, 11]: +193.3±67.4%
increase of distance swum [5, 12]: +107.7±15.8%
reduction in immobility [5, 12]: −36.6±5.7%
acute antidepressant (anti-immobility) effect in the RFS [5]: rapid and effective preclinical antidepressant actions
acute antidepressant (anti-immobility) effect in the RFS ([5]; listed as corticosteroid): immediate and effective antidepressant action
open field locomotion [8]: No effect

C[C@@H]1C[C@H]2[C@@H]3CCC4=CC(=O)C=C[C@]4(C)[C@@]3(F)[C@@H](O)C[C@]2(C)[C@@]1(O)C(=O)COP(=O)(O)O [dexamethasone sodium phosphate]
bioavailability [9]: approximately 0.5

Cc1cccc([C@H](C)c2cnc[nH]2)c1C [dexmedetomidine]
antidepressant activity in the tail suspension test [1]: equally effective
antidepressant activity in the repeated open-space forced swim test [3]: only 6FNE was effective

CNC1(c2ccccc2Cl)CCCCC1=O (stereo not drawn) [ketamine]
acute antidepressant (anti-immobility) effect in the RFS [5]: None of the currently available antidepressants that were tested, including ketamine, appeared acutely effective

COc1cc2nc(N3CCN(C(=O)c4ccco4)CC3)nc(N)c2cc1OC [prazosin]
effect of the antagonist on LC or PVH Fos (Fos expression in the LC): no effect
effect of receptor blockade on the antidepressant actions of dp6FNE in the RFS ([5]; high dose systemic prazosin or α2-antagonist atipamezole given with dp6FNE): significantly reversed the antidepressant actions of pro-drug in the RFS

— US9265774B2, “Methods, compounds and pharmaceutical compositions for treating anxiety and mood disorders” (New York University, priority 2011, dated 2016)
